Assay results from the supplement of paper PMC10307832.

What was measured:
Test in all cases: relative viability (nuclei count vs DMSO), 5 days (fraction); higher = more cells survive
NCI-H647 = system: NCI-H647
In short: (§1)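 After 5 days of treatment, lung cancer cells in 1536-well plates were fixed and stained in a single step (final 0.05% Triton X-100, 1% formaldehyde, 1 ug/ml Hoechst) and their nuclei counted on 4× images. Treatment had been applied by pin tool the day after seeding as one drug alone or as a fixed anchor-drug dose with five library-drug doses (not always all listed) in √10 steps. Relative viability is the nuclei count of treated wells divided by that of vehicle wells, and values are medians of duplicate plates.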

NCI-H1651 = system: NCI-H1651
In short: as §1

UMC-11 = system: UMC-11
In short: as §1

NCI-H1650 = system: NCI-H1650
In short: as §1

HCC-78 = system: HCC-78
In short: as §1

LCLC-103H = system: LCLC-103H
In short: as §1

LK-2 = system: LK-2
In short: as §1

LCLC-97TM1 = system: LCLC-97TM1
In short: as §1

NCI-H1793 = system: NCI-H1793
In short: as §1

COR-L23 = system: COR-L23
In short: as §1

A-427 = system: A-427
In short: as §1

NCI-H522 = system: NCI-H522
In short: as §1

PC-3 [JPC-3] = system: PC-3 [JPC-3]
In short: as §1

LOU-NH91 = system: LOU-NH91
In short: as §1

LXF-289 = system: LXF-289
In short: as §1

NCI-H838 = system: NCI-H838
In short: as §1

201T = system: 201T
In short: as §1

HARA = system: HARA
In short: as §1

NCI-H2347 = system: NCI-H2347
In short: as §1

NCI-H2405 = system: NCI-H2405
In short: as §1

NCI-H23 = system: NCI-H23
In short: as §1

NCI-H520 = system: NCI-H520
In short: as §1

RERF-LC-KJ = system: RERF-LC-KJ
In short: as §1

## Cc1cn(-c2cc(NC(=O)c3ccc(C)c(Nc4nccc(-c5cccnc5)n4)c3)cc(C(F)(F)F)c2)cn1 [Nilotinib] + Cc1cc(Nc2cc(N3CCN(C)CC3)nc(Sc3ccc(NC(=O)C4CC4)cc3)n2)n[nH]1 [Tozasertib] (partner 0.1 µM)
NCI-H647; first compound 0.001 µM
  relative viability: 0.147
NCI-H647; first compound 0.003162 µM
  relative viability: 0.227
NCI-H647; first compound 0.01 µM
  relative viability: 0.164
NCI-H647; first compound 0.03162 µM
  relative viability: 0.143
NCI-H647; first compound 0.1 µM
  relative viability: 0.139
NCI-H1651; first compound 0.001 µM
  relative viability: 0.458
NCI-H1651; first compound 0.003162 µM
  relative viability: 0.584
NCI-H1651; first compound 0.01 µM
  relative viability: 0.405
NCI-H1651; first compound 0.03162 µM
  relative viability: 0.249
NCI-H1651; first compound 0.1 µM
  relative viability: 0.275
UMC-11; first compound 0.001 µM
  relative viability: 0.191
UMC-11; first compound 0.003162 µM
  relative viability: 0.19
UMC-11; first compound 0.01 µM
  relative viability: 0.179
UMC-11; first compound 0.03162 µM
  relative viability: 0.166
UMC-11; first compound 0.1 µM
  relative viability: 0.134
NCI-H1650; first compound 0.001 µM
  relative viability: 0.329
NCI-H1650; first compound 0.003162 µM
  relative viability: 0.355
NCI-H1650; first compound 0.01 µM
  relative viability: 0.324
NCI-H1650; first compound 0.03162 µM
  relative viability: 0.324
NCI-H1650; first compound 0.1 µM
  relative viability: 0.256
HCC-78; first compound 0.001 µM
  relative viability: 0.408
HCC-78; first compound 0.003162 µM
  relative viability: 0.373
HCC-78; first compound 0.01 µM
  relative viability: 0.479
HCC-78; first compound 0.03162 µM
  relative viability: 0.331
HCC-78; first compound 0.1 µM
  relative viability: 0.28
LCLC-103H; first compound 0.001 µM
  relative viability: 0.347
LCLC-103H; first compound 0.003162 µM
  relative viability: 0.425
LCLC-103H; first compound 0.01 µM
  relative viability: 0.452
LCLC-103H; first compound 0.03162 µM
  relative viability: 0.364
LCLC-103H; first compound 0.1 µM
  relative viability: 0.293
LK-2; first compound 0.001 µM
  relative viability: 0.181
LK-2; first compound 0.003162 µM
  relative viability: 0.163
LK-2; first compound 0.01 µM
  relative viability: 0.155
LK-2; first compound 0.03162 µM
  relative viability: 0.175
LCLC-97TM1; first compound 0.001 µM
  relative viability: 0.236
LCLC-97TM1; first compound 0.003162 µM
  relative viability: 0.254
LCLC-97TM1; first compound 0.01 µM
  relative viability: 0.161
LCLC-97TM1; first compound 0.03162 µM
  relative viability: 0.182
LCLC-97TM1; first compound 0.1 µM
  relative viability: 0.217
NCI-H1793; first compound 0.001 µM
  relative viability: 0.248
NCI-H1793; first compound 0.003162 µM
  relative viability: 0.298
NCI-H1793; first compound 0.01 µM
  relative viability: 0.3
NCI-H1793; first compound 0.03162 µM
  relative viability: 0.306
NCI-H1793; first compound 0.1 µM
  relative viability: 0.296
COR-L23; first compound 0.001 µM
  relative viability: 0.143
COR-L23; first compound 0.003162 µM
  relative viability: 0.132
COR-L23; first compound 0.01 µM
  relative viability: 0.134
COR-L23; first compound 0.03162 µM
  relative viability: 0.158
COR-L23; first compound 0.1 µM
  relative viability: 0.126
A-427; first compound 0.001 µM
  relative viability: 0.168
A-427; first compound 0.003162 µM
  relative viability: 0.184
A-427; first compound 0.01 µM
  relative viability: 0.149
A-427; first compound 0.03162 µM
  relative viability: 0.167
A-427; first compound 0.1 µM
  relative viability: 0.168
NCI-H522; first compound 0.001 µM
  relative viability: 0.484
NCI-H522; first compound 0.003162 µM
  relative viability: 0.605
NCI-H522; first compound 0.01 µM
  relative viability: 0.521
NCI-H522; first compound 0.03162 µM
  relative viability: 0.558
NCI-H522; first compound 0.1 µM
  relative viability: 0.619
PC-3 [JPC-3]; first compound 0.001 µM
  relative viability: 0.736
PC-3 [JPC-3]; first compound 0.003162 µM
  relative viability: 0.932
PC-3 [JPC-3]; first compound 0.01 µM
  relative viability: 0.91
PC-3 [JPC-3]; first compound 0.03162 µM
  relative viability: 0.621
PC-3 [JPC-3]; first compound 0.1 µM
  relative viability: 0.426
LOU-NH91; first compound 0.001 µM
  relative viability: 0.696
LOU-NH91; first compound 0.003162 µM
  relative viability: 0.708
LOU-NH91; first compound 0.01 µM
  relative viability: 0.781
LOU-NH91; first compound 0.03162 µM
  relative viability: 0.62
LOU-NH91; first compound 0.1 µM
  relative viability: 0.726
LXF-289; first compound 0.001 µM
  relative viability: 0.254
LXF-289; first compound 0.003162 µM
  relative viability: 0.189
LXF-289; first compound 0.01 µM
  relative viability: 0.222
LXF-289; first compound 0.03162 µM
  relative viability: 0.127
LXF-289; first compound 0.1 µM
  relative viability: 0.153
NCI-H838; first compound 0.001 µM
  relative viability: 0.219
NCI-H838; first compound 0.003162 µM
  relative viability: 0.298
NCI-H838; first compound 0.01 µM
  relative viability: 0.294
NCI-H838; first compound 0.03162 µM
  relative viability: 0.228
NCI-H838; first compound 0.1 µM
  relative viability: 0.221
201T; first compound 0.003162 µM
  relative viability: 1.18
201T; first compound 0.01 µM
  relative viability: 0.976
201T; first compound 0.03162 µM
  relative viability: 0.691
201T; first compound 0.1 µM
  relative viability: 0.634
HARA; first compound 0.001 µM
  relative viability: 0.0752
HARA; first compound 0.003162 µM
  relative viability: 0.102
HARA; first compound 0.01 µM
  relative viability: 0.102
HARA; first compound 0.03162 µM
  relative viability: 0.0999
HARA; first compound 0.1 µM
  relative viability: 0.0992
NCI-H2347; first compound 0.001 µM
  relative viability: 0.451
NCI-H2347; first compound 0.003162 µM
  relative viability: 0.463
NCI-H2347; first compound 0.01 µM
  relative viability: 0.489
NCI-H2347; first compound 0.03162 µM
  relative viability: 0.476
NCI-H2347; first compound 0.1 µM
  relative viability: 0.3
NCI-H2405; first compound 0.001 µM
  relative viability: 0.767
NCI-H2405; first compound 0.003162 µM
  relative viability: 0.765
NCI-H2405; first compound 0.01 µM
  relative viability: 0.712
NCI-H2405; first compound 0.03162 µM
  relative viability: 0.654
NCI-H2405; first compound 0.1 µM
  relative viability: 0.723
NCI-H23; first compound 0.001 µM
  relative viability: 0.303
NCI-H23; first compound 0.003162 µM
  relative viability: 0.329
NCI-H23; first compound 0.01 µM
  relative viability: 0.283
NCI-H23; first compound 0.03162 µM
  relative viability: 0.247
NCI-H23; first compound 0.1 µM
  relative viability: 0.226
NCI-H520; first compound 0.001 µM
  relative viability: 0.486
NCI-H520; first compound 0.003162 µM
  relative viability: 0.46
NCI-H520; first compound 0.01 µM
  relative viability: 0.428
NCI-H520; first compound 0.03162 µM
  relative viability: 0.462
NCI-H520; first compound 0.1 µM
  relative viability: 0.386
RERF-LC-KJ; first compound 0.001 µM
  relative viability: 0.335
RERF-LC-KJ; first compound 0.003162 µM
  relative viability: 0.416
RERF-LC-KJ; first compound 0.01 µM
  relative viability: 0.305
RERF-LC-KJ; first compound 0.03162 µM
  relative viability: 0.349
RERF-LC-KJ; first compound 0.1 µM
  relative viability: 0.302
